Read-outs that look alike come from different tables or passages of the source.
Legend:
[1] = system: Escherichia coli IFO 3972; experiment: MIC by liquid medium dilution technique, 96-well microplate, gram-negative bacteria; assay type: cell-based
Method: (§1) Regarding the antimicrobial peptide (samples 1 to 20) related to the present invention, the antimicrobial activities (minimum inhibitory concentration: MIC) with respect to gram-negative bacteria (Escherichia coli IFO 3972) and gram-positive bacteria (Staphylococcus aureus IFO 12732) were determined by a liquid medium dilution technique using a 96-well microplate.
(§2) First, a drug (synthesized polypeptide) solution having a concentration of 40 times of the highest test concentration was prepared using sterile distilled water, and liquid-bouillon mediums (more specifically, “Mueller Hinton Broth” manufactured by DIFCO) including cation and having drug concentrations of 100, 50, 25, 12.5, 6.3, 3.1, 1.6 and 0.8 μM were respectively produced. The cation included was prepared as follows: dissolving 3.68 g of CaCl2.2H2O in 100 mL of purified water (10 mg.Ca^2+/mL), and thereafter adding 500 μL thereof into 100 mL of Mueller Hinton Broth; and dissolving 8.36 g of MgCl2.6H2O in 100 mL of purified water (10 mg.Mg^2+/mL), and thereafter adding 250 μL thereof into 100 mL of Mueller Hinton Broth. Thereafter, the produced liquid-bouillon mediums including the drug of each concentration were then fed to the 96-well microplate at […] a time.
(§3) At the same time, test bacteria cultured for 18 hours at 37° C. on an agar plate (“Muller Hinton Agar” manufactured by DIFCO) were gathered by scratching with a loop, and then suspended in a sterilized physiological saline. Bacterial suspension 5 μL prepared at an equivalent of 2×10^7 cells/mL was respectively inoculated (number of bacteria to be tested: approximately 1×10^6 cells/mL) onto the drug solution and fed to each well of the above-described microplate. After inoculation, the microplate was then incubated in an incubator at 37° C., and the presence of bacteria was evaluated based on the turbidity 24 hours later. The minimum drug concentration (polypeptide concentration), in which an increased in turbidity caused by bacteria was not detected at the time of measurement, was defined as MIC (minimum inhibitory concentration) (unit: μM) in the present embodiment. In addition, MIC were determined in the same manner using polymyxin B as a comparison.

[2] = system: Staphylococcus aureus IFO 12732; assay type: cell-based
Method: as §1, §2, §3

[3] = system: S. aureus; assay type: cell-based, Staphylococcus aureus
Method: as §2, §3
Next, the antimicrobial activities (MIC) against gram-positive bacteria (S. aureus) in the presence of serum were tested with the same method as Example 2. […] Thereafter, the produced liquid-bouillon mediums including the drug and the serum of each concentration were then fed to the 96-well microplate at […] a time, and MIC were determined by the method same as Example 2. Sample X in the table is a mixture of sample 1 and sample 16 based on a mass ratio of 1:1. “-” in the table indicate “untested”.

[4] = system: Aspergillus niger IFO 6341; assay type: cell-based
Method: (§4) Antimicrobial activity against fungi (Aspergillus niger IFO 6341) of the antimicrobial peptides related to the present invention was tested according to a general antimycotic susceptibility test as follows.
More specifically, a slant or plate medium (“potato dextrose agar” medium manufactured by DIFCO was used typically) adhered with spores (conidia) was prepared in advance, and A. niger (IFO 6341; JIS test strain) were gathered from the medium by scratching the medium surface 4 to 5 times from bottom up with a 1 μL disposable loop and suspended in 25 mL of PBS (free of Mg, Ca) solution containing 0.05% of surfactant (Tween® 80). Thereafter, pipetting was performed using a measuring pipette or the like such that clusters of black spores disappeared completely. The spore concentration of the spore suspension prepared by such method was determined using a hemocytometer while the above-described surfactant containing PBS solution was being diluted accordingly, thereby deriving a spore suspension having a spore concentration of approximately 2.5×10^5 spores/mL.
At the same time, the above-described two polypeptides (samples 1, 3) and benzalkonium chloride serving as a comparison for antimycotic activity were dissolved in 10 mM of HEPES buffer (pH7.0) respectively to prepare stock solutions with a 2.0 mg/mL drug concentration. These were sequentially diluted to prepare various kinds of test drugs with drug (each polypeptide or benzalkonium chloride) concentrations of 400, 200, 100, 50, 25, 5 and 0.5 μg/mL.
A spore germination inhibition test and a spore growth inhibition test were performed using the above-prepared drugs and spore suspension as follows.
First, each of the above-described drugs was fed to the 96-well microplate at 40 μL a time for the spore germination inhibition test. The surplus drugs were stored in a refrigerator (4° C.) to be used for the spore growth inhibition test to be perform at a later date.
(§5) Next, a test fungus suspension was prepared by adding, with respect to 10 part by mass of the above-described spore suspension, 2 parts by mass of Alamar Blue fluorescence reagent (product of Wako Pure Chemical Industries, Ltd.) and 8 parts by mass of RPMI1640 medium containing 0.165M of MOPS, which was prepared by dissolving 5.2 g of RPMI1640 (product of Irvine Scientific) and 1.0 g of NaHCO3 in 450 mL of sterile distilled water and thereafter adding 17.12 g of MOPS and stirring, and adjusting the pH value to 7.0 by adding NaOH, and then filling up to 500 mL by adding sterile distilled water. Then, the fungus suspension was fed at 160 μL a time to the wells in which the above-described drugs were added. In addition, empty wells in which no drug was added were also fed at 160 μL a time for spore growth inhibition test. After feeding, it was cultured under a humid environment for 16 hours in an incubator at 30° C.
Twenty-four hours and 48 hours after the beginning of culturing, the colour of the mediums in the wells used for spore germination inhibition test and the wells for spore growth inhibition test were observed. Here, those in which the Alamar Blue included within the medium remain blue (oxidized form) were evaluated as positive of antimicrobial activity positive, and those that are pink (reduced form) were evaluated as negative of antimicrobial activity. Moreover, the smallest drug concentration recognized as oxidized form (blue color) was served as MIC (minimum growth inhibitory concentration) in the spore germination inhibition test and the spore growth inhibition test related to the present example.

[5] = system: Aspergillus niger IFO 6341; assay type: cell-based; conditions: after 24 hours
Method: as §4
More specifically, a slant or plate medium (“potato dextrose agar” medium manufactured by DIFCO was used typically) adhered with spores (conidia) was prepared in advance, and A. niger (IFO 6341; JIS test strain) were gathered from the medium by scratching the medium surface 4 to 5 times from bottom up with a 1 μL disposable loop and suspended in 25 mL of PBS (free of Mg, Ca) solution containing 0.05% of surfactant (Tween® 80). Thereafter, pipetting was performed using a measuring pipette or the like such that clusters of black spores disappeared completely. The spore concentration of the spore suspension prepared by such method was determined using a hemocytometer while the above-described surfactant containing PBS solution was being diluted accordingly, thereby deriving a spore suspension having a spore concentration of approximately 2.5×10^5 spores/mL. […]
as §5, with “Then, the fungus suspension was fed at 160 μL a time to the wells in which the above-described drugs were added. In addition, empty wells in which no drug was added were also fed at 160 μL a time for spore growth inhibition test. After feeding, it was cultured under a humid environment for 16 hours in an incubator at 30° C.” left out
Sixteen hours after the beginning of culturing, the plate was retrieve from the incubator, and the presence of generation (growth) of mycelia in each well (well that had already been fed exclusively by the above-described test drug) used for spore growth inhibition test was evaluated with a microscope. […]

[6] = Mueller Hinton Broth with cation, 37° C., turbidity after 24 hours

For “H-RKKKRKVLMWWMLR-OH [sample 16, RKKKRKVLMWWMLR-COOH]”, the “Antimicrobial Activities (MIC) E. coli” value ([1]; IFO 3972, 24 h) was 12.5 µM, the “Antimicrobial Activities (MIC) S. aureus” value ([2]; IFO 12732, 24 h) was 3.1 µM and the “Antimicrobial Activities (MIC) against S. aureus, horse serum concentration 10%” value [3] was 3.1 µM.
For “H-RKKKRKVLMWWMLAR-NH2 [sample 6, RKKKRKVLMWWMLAR-CONH2]”, the “Antimicrobial Activities (MIC) E. coli” value [1, 6] was 12.5 µM, the “Antimicrobial Activities (MIC) S. aureus” value [2, 6] was 6.3 µM and the “Antimicrobial Activities (MIC) against S. aureus, horse serum concentration 10%” value ([3]; horse serum 10%) was 3.1 µM. The “Antimicrobial Activities (MIC) against S. aureus, horse serum concentration 20%” value ([3]; horse serum 20%) was 3.1 µM and the “Antimicrobial Activities (MIC) against S. aureus, horse serum concentration 50%” value ([3]; horse serum 50%) was 1.6 µM.
“Ac-RKKKRKVLMWWMLR-NH2 [sample 8, Ac-RKKKRKVLMWWMLR-CONH2]” was tested, and the “Antimicrobial Activities (MIC) E. coli” value ([1]; IFO 3972, 24 h) was 12.5 µM, the “Antimicrobial Activities (MIC) S. aureus” value ([2]; IFO 12732, 24 h) was 3.1 µM and the “Antimicrobial Activities (MIC) against S. aureus, horse serum concentration 10%” value [3] was 3.1 µM. For the same substance, the “Antimicrobial Activities (MIC) against S. aureus, horse serum concentration 50%” value [3] was 6.3 µM.
With “H-RIRKKLRLMWWMLR-NH2 [sample 14, RIRKKLRLMWWMLR-CONH2]” the “Antimicrobial Activities (MIC) E. coli” value ([1]; IFO 3972, 24 h) was 6.3 µM, the “Antimicrobial Activities (MIC) S. aureus” value ([2]; IFO 12732, 24 h) was 3.1 µM and the “Antimicrobial Activities (MIC) against S. aureus, horse serum concentration 10%” value [3] was 6.3 µM.
“benzalkonium chloride [reference compound]” was tested, and the “MIC against A. niger, spore germination inhibition test after 24 hours” value ([4]; after 24 hours) was 25 µg/mL, the “MIC against A. niger, spore germination inhibition test after 48 hours” value ([4]; after 48 hours) was 25 µg/mL and the “MIC against A. niger, spore growth inhibition test after 24 hours” value [5] was 25 µg/mL.

— patent US7674771B2, “Antimicrobial peptides and utilization of the same” (Toagosei Co., Ltd, priority 2003, dated 2010)
